Experiment [1] has as its target T1, SorC (Penicillium rubens, UniProt B6HN76).
T1 construct: monomer
As to the kind of experiment: enzyme kinetics. It is filed as biochemical. The settings on record: coenzyme; hydroxylation of sorbicillin.

The target in experiment [2] is T1, SorC. Nature of the experiment: X-ray crystal structure, […] Å. Type of experiment: binding. As to conditions: flavin out conformation; without sorbicillin.
Experiment [3] concerns the target T2, SorD (Penicillium rubens, UniProt B6HNK6).
T2 construct: C-terminal His6 tag, endogenous signal peptide (residues 5-22 partly seen in structure), secreted from Aspergillus niger; N-glycosylated; ~50 kDa theoretical, 61 kDa measured; monomer; FAD covalent at His78
As to the kind of experiment: X-ray crystal structure, […] Å. It is filed as binding. As to conditions: covalent; attached to His78; without sorbicillin.

The target in experiment [4] is T1, SorC. Nature of the experiment: microscale thermophoresis. Type of experiment: binding.
The target in experiment [5] is T3, SorC (Penicillium rubens, UniProt B6HN76, R201A).
T3 construct: monomer
T3 sequence (B6HN76 whole entry R201A): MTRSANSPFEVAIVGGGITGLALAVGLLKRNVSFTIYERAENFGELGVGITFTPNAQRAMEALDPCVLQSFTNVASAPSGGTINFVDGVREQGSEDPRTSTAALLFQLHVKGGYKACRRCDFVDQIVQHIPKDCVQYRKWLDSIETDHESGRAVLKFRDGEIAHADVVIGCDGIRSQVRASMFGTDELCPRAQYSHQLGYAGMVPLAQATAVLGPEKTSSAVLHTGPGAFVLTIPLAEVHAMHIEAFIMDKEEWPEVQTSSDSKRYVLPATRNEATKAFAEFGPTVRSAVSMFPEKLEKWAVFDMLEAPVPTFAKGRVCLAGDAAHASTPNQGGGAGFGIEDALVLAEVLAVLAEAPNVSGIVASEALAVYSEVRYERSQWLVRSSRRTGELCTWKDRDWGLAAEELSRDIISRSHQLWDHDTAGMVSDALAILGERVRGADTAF
As to the kind of experiment: microscale thermophoresis. Type of experiment: binding.

For experiment [6], the target named is T2, SorD. Nature of the experiment: microscale thermophoresis. It is filed as binding.

T1 sequence (B6HN76 whole entry): as the sequence (B6HN76 whole entry R201A) above, with A201R counted along it
T2 sequence (B6HNK6 whole entry, the tested form may be a part): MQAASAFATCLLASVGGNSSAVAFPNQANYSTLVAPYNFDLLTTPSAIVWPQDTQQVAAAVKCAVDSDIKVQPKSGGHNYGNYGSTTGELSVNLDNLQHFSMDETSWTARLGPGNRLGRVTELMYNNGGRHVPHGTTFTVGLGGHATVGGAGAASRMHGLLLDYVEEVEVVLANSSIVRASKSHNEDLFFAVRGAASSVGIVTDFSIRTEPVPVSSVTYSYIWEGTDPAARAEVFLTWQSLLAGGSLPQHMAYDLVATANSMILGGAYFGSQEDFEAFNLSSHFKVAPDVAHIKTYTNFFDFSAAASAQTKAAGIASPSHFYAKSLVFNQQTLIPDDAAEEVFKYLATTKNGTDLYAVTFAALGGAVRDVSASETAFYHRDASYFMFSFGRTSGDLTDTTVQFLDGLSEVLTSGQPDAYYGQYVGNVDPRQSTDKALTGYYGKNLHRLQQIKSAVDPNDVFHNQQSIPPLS

With `NC(=O)C1=CN([C@@H]2O[C@H](COP(=O)(O)OP(=O)(O)OC[C@H]3O[C@@H](n4cnc5c(N)ncnc54)[C@H](O)[C@@H]3O)[C@@H](O)[C@H]2O)C=CC1` [NADH], the catalytic efficiency entry in experiment [1] was “both NADH and NADPH were accepted as coenzymes, with NADH having a higher overall catalytic efficiency”.
In the case of `Cc1cc2nc3c(=O)[nH]c(=O)nc-3n(C[C@H](O)[C@H](O)[C@H](O)COP(=O)(O)OP(=O)(O)OC[C@H]3O[C@@H](n4cnc5c(N)ncnc54)[C@H](O)[C@@H]3O)c2cc1C` [FAD], the “X-ray crystal structure, 1.4 Å” value in experiment [2] is “SorC without sorbicillin shows that the oxidized flavin is already in the out conformation”. For the same molecule, the “X-ray crystal structure, 1.55 Å” value in experiment [3] is given as “SorD, where the FAD is covalently attached to residue His78”.
On to `NC(=O)C1=CN([C@@H]2O[C@H](COP(=O)(O)OP(=O)(O)OC[C@H]3O[C@@H](n4cnc5c(N)ncnc54)[C@H](OP(=O)(O)O)[C@@H]3O)[C@@H](O)[C@H]2O)C=CC1` [NADPH], for which the catalytic efficiency entry in experiment [1] was “both NADH and NADPH were accepted as coenzymes”.
What is called Kd is the concentration at which binding is half-saturated. The low end stands for a tighter complex, the high end for a looser complex. Take `C/C=C/C=C/C(=O)c1cc(C)c(O)c(C)c1O` [compound 1, sorbicillin]: the Kd was 940 ± 93 nM in experiment [4], 12600 ± 9700 nM in experiment [5] and 1200 ± 1600 nM in experiment [6].

The record behind these values is paper PMC11934079, “Structural and Mechanistic Characterization of the Flavin-Dependent Monooxygenase and Oxidase Involved in Sorbicillinoid Biosynthesis” (ACS Chemical Biology, 2025).
